In patent US5043354A, “Pharmaceutically useful 5-hydroxy-2,3-dihydro-benzofurans and 5-hydroxy-benzofurans” (Fujisawa Pharmaceutical Co., Ltd., priority 1989, dated 1991):

What was measured:
[1] = tested on: rat brain homogenate; experiment: Inhibitory effect on iron-dependent lipid peroxidation of rat brain homogenate (TBA-reactive products); format: biochemical, rat (male Sprague-Dawley); settings: 37° C, 20 min
Description: Inhibitory effect on iron-dependent lipid peroxidation of rat brain homogenate
Method : (reported by J. M. Braughler et al.^1))
After decapitation,the brain was quickly removed (minus cerebellum), weighed, and placed in ice-cold Krebs buffer solution. The brain was homogenized in a ratio of 1 g of wet tissue to 9 ml of buffer in a teflon homogenizer. Homogenates were used immediately in lipid p-roxidation assays as follows.
* HEPES : N-(2-hydroxyethyl)piperazine-N'-2-ethanesulfonic acid (Sigma)
To the reaction mixture consisted of 50 μl of 6.25 mg/ml brain homogenate in Krebs buffer solution, 110 μl of Krebs buffer solution, 20 μl of sample dissolved in methanol was added 20 μl of aqueous 2 mM Fe(NH4)2 (SO4)2 solution, which was prepared freshly, at 37° C. After 20 min, the reaction was terminated by the addition of 30 μl of 35% perchloric acid. Then 20 μl of 500 μM desferoxamine mesylate (Sigma) in Krebs buffer solution was added to the reaction mixture to prevent further lipid peroxydation. After centrifugation at 2000 xg, 10 min, 4° C., 50 μl of supernatant was subsequently assayed for lipid peroxide.
Lipid peroxide was assessed as TBA-reactive product as described by H. Ohkawa et al ^2). The reaction mixture consisted of 50 μl of above-mentioned supernatant, 100 μl of aqueous 8.1% sodium dodecyl sulfate (SDS) solution, 750 μl of aqueous 20% acetic acid solution which was adjusted with aqueous lN NaOH solution to pH 3.5, 750 μl of aqueous 0.67% 2-thiobarbituric acid solution and 350 μl of distilled water was boiled for 1 hour and cooled in ice bath rapidly. 0.5 ml of distilled water and 2.5 ml of the mixture of n-butanol and pyridine (15:1, V/V) were added, and the mixture was shaken vigorously. After centrifugation at 1250 xg for 10 min, the fluorescence (excitation; 515 nm, emission; […]) of the organic layer was determined.

[2] = target: xanthine oxidase-hypoxanthine (XO/HX) reaction; experiment: Inhibitory effect on luminol-induced chemiluminescence (CL) which results from xanthine oxidase-hypoxanthine (XO/HX) reaction; format: biochemical, cow; settings: 37° C, peak intensity, sample in dimethylsulfoxide
Description: Inhibitory effect on luminol-induced chemiluminescence (CL) which results from xanthine oxidase-hypoxanthine (XO/HX) reaction.
Four hundred and fifty micro liter of […] hypoxanthine (Kohjin Co., Ltd.) in 0.lM phosphate buffer solution (PBS)(pH 7.6), 10 μl of 1 mg/ml luminol (Nakarai Chemicals, Ltd.) in PBS and 10 μl of sample dissolved in dimethylsulfoxide were mixed in a round-bottomed vial, and preincubated for 3 min. at 37° C. And then, 50 μl of 0.05 unit/ml xanthine oxidase in 0.lM phosphate buffer solution (from cow milk, Boehringer Mannhein GmbH) was added. For the measurement of CL, a Biolumat (LB 9505, Berthold, FRG) was used. The vial containing XO/HX reaction mixture was placed into a Biolumat chamber at 37° C, and CL was continuously monitored using a computer (PC 9801 VM, NEC). Peak intensity was used as an index of CL.

[3] = Solubility; format: physicochemical

Q: Which results are given for `Cc1c(C)c2c(c(C)c1O)CCC(C)(CCCC(C)CCCC(C)CCCC(C)C)O2` (stereo not drawn) [α-Tocopherol, reference compound]?
A: Inhibition of TBA-reactive products generation ([1]; concentration 10^-4 M): 65.3%; Inhibition of TBA-reactive products generation ([1]; concentration 10^-5 M): 25.7%; Inhibition of TBA-reactive products generation ([1]; concentration 10^-6 M): 9.3%; Inhibition of TBA-reactive products generation ([1]; concentration 10^-7 M): 0%

Q: For `COc1cc2c(cc1O)CC(C(C)(C)O)O2` (stereo not shown) [Example 3, 2,3-Dihydro-2-(1-hydroxy-1-methylethyl)-6-methoxy-5-benzofuranol], which IC50 [2] is on record?
A: 320 nM

Q: What about the “Inhibition of TBA-reactive products generation” value (from here on “Inhibition”) ([1]; concentration 10^-4 M) of the same compound?
A: 95.5%

Q: What about the “Inhibition” value ([1]; concentration 10^-5 M) of the same compound?
A: 45.4%

Q: What about the “Inhibition” value ([1]; concentration 10^-6 M) of the same compound?
A: 20.0%

Q: And the “Inhibition” value ([1]; concentration 10^-7 M)?
A: 11.4%

Q: And the Solubility ([3]; chloroform, diethyl ether, ethyl acetate, acetone, methanol and ethanol)?
A: Soluble

Q: What about the Solubility ([3]; hexane, water) of the same compound?
A: Sparingly Soluble

Q: With `COc1cc2oc(C(C)C)cc2cc1O` [Example 2, 5-hydroxy-6-methoxy-2-(1-methylethyl)benzofuran] as the compound, how does the IC50 [2] read?
A: 4.7 nM

Q: With `COc1cc2c(cc1O)CC(C(C)(C)O)O2` (racemic) [Example 1, 2,3-dihydro-2-(1-hydroxy-1-methylethyl)-6-methoxy-5-benzofuranol] as the compound, how does the IC50 [2] read?
A: 380 nM
